In one test the test system is angiotensin II receptors. Briefly: Inhibition of radiolabeled angiotensin II binding to isolated hepatic receptor. Details: species or system rabbit. The conditions noted are these: for ID50 (concentration of peptide that inhibited binding of radiolabeled angiotensin II by 50%): 0.25 nM [125I]angiotensin II, partially purified solubilized rabbit liver receptor, 60 minutes at 20° C. As to the method: Inhibition of angiotensin II binding to angiotensin II receptors by peptides of this invention was measured through the use of radioactive angiotensin II. Rabbit livers were homogenized and centrifuged in order to isolate particles sedimenting between 1,000 and 100,000×g. A portion of the particles which binds angiotensin II was solubilized with 1% digitonin, followed by ammonium sulfate fractionation between 49 and 65% saturation, followed by DEAE-cellulose chromatography at pH 7.5 using a linear gradient between 0.0 and 0.3 M KCl. The partially purified, solubilized receptor preparation bound 17 pmoles of angiotensin II per mg of protein when analyzed by Scatchard analysis, indicating a purity of approximately 0.1%.
The assay for binding of angiotensin II to the receptor was as follows: The complete system (150 μl) contained 30 mM Tris-HCl, pH 7.5, 2.5 mM K2 EDTA, 0.2 mM PCMS, 0.25 nM [^125 I]angiotensin II (ca. 100,000 cpm), 100 μg BSA, 0.25% (v/v) Brij 99 (a polyoxyethylene ether of a fatty alcohol) and 30 μg of partially purified receptor. The reaction was initiated by addition of the receptor and samples were incubated for 60 minutes at 20° C. The reaction was terminated with 1 ml of cold 0.5% charcoal/0.05% dextran in 100 mM Tris-HCl, pH 7.5. Tubes were vortexed and then allowed to stand 10 minutes at 4° C., after which they were centrifuged and their supernatants, containing protein-bound angiotensin II, were counted.
The complete system under these conditions regularly yields about 10,000 cpm of bound radioactivity. […] A sample including 20 nM cold angiotensin II was also run. Residual binding of radioactivity in this control was 35-45%. Certain peptides of this invention were dissolved in water, except for Peptide 5, which was dissolved in 3% DMSO, 0.04 M acetic acid, and 0.05 M HCl in water.

Test [1] concerns AII-stimulated contraction of isolated rabbit aorta strips. The test is described as follows: Peptide effect on AII-stimulated contraction of arterial muscle strips. The format is cell-based. The conditions noted are these: AII 10^-9 M. The procedure: (§1) The peptides of this invention were tested in vitro, using an assay of isolated rabbit aorta strips mounted in a muscle bath.
(§2) Strips were mounted vertically on a glass holder in a tissue bath containing 50 ml of PSS. The upper end of each strip was connected to a force transducer. The bathing medium was maintained at 37° C. and aerated with a mixture of 95% O2 -5% CO2. The pH of the PSS was 7.2 and the composition, in mmoles/l, was as follows: NaCl 130, KCl 14.7, KH2 PO4 1.18, MgSO4 7H2 O 1.17, CaCl2 -2H2 O 1.6, […] 14.9, dextrose 5.5, and CaNa2 EDTA 0.03. In all experiments, the passive force on each strip was adjusted to 2,000 mg.
In another set of experiments, the ability of peptides to increase or decrease contraction caused by angiotensin II was measured.
The muscle strips were bathed in PSS containing AII, 10^-9 M. Strips were allowed to contract until a steady-state contraction was reached (^~8 minutes), then peptide was added in a step-wise. cumulative manner. The change in muscle strip contraction was measured after each addition of peptide, and more peptide was not added until contraction had stabilized from the previous peptide addition (10-15 minutes). Each peptide was tested in strips from 2 or 4 rabbits.
A positive value indicates increased contraction, while a negative value represents a decreased contractile response.

In test [2] the test system is isolated rabbit aorta strips. The test is described as follows: Contractile response of isolated arterial smooth muscle strips in muscle bath. The format is cell-based. The conditions noted are these: cumulative addition. As to the method: as §1
as §2, with “The left anterior descending coronary artery was excised from the heart and cut helically into a strip under a dissecting microscope. Strips” for “Strips”
In one set of experiments, peptides were tested for ability to stimulate contractile response. Peptide was added to the bath in a step-wise, cumulative manner. Three peptides were tested: angiotensin II., Peptide 2 and Peptide 5. Muscle strips from between 2 and 6 rabbits were used to test each peptide.

A further test has as its system dog femoral vein. The test is described as follows: Angiotensin II-caused relaxation of isolated dog venous strips. Type of test: cell-based. The conditions noted are these: angiotensin II 3×10^-7 M. As to the method:
Peptide 2 of this invention was tested in vitro, using an assay of isolated dog venous strips mounted in a muscle bath. Isolated segments of the dog femoral vein (n=2) were mounted in organ baths for measurement of isometric force generation. The conditions were as described in Example 3. The vascular segments were made to contract in response to prostaglandin F2a (8.5×10^-7 M). After the contraction reached a plateau, angiotensin II (3×10^-7 M) was added to the organ bath and the venous segments relaxed to approximately 50% of the response to prostaglandin F2a. This relaxation response to angiotensin II was inhibited 100% by saralasin ([…]) and by Peptide 2 (10^-5 M).

For the next test, the system named is rat hypertension model. The test is described as follows: Blood pressure in anesthetized rats (rat hypertension model). Type of test: in vivo. The procedure: Peptide 2 of this invention was tested in vivo, using a rat hypertension model. Adult male rats (n=4) were anesthetized with sodium pentobarbital (50 mg/kg) and the left jugular vein was cannulated for infusion of drugs. Bolus injections of angiotensin II were delivered via the same venous catheter. The right carotid artery was cannulated for measurement of blood pressure. Injection of angiotensin II (1 ng) caused an increase in mean arterial blood pressure (^~ 50 mm Hg).

Non-standard residues stand in square brackets, D forms with d. Residues, ends and D or L forms follow the SMILES beside them.

As to `CSCC[C@H](NC(=O)[C@H](Cc1ccc(O)cc1)NC(=O)[C@@H](NC(=O)CNC(=O)[C@@H](N)CCCCN)C(C)C)C(=O)N[C@@H](Cc1c[nH]cn1)C(=O)N[C@@H](CO)C(=O)N[C@@H](CC(C)C)C(=O)O` [Peptide 13, NH2LYSGLYVALTYRMETHISSERLEUCOOH] (H-KGVYMHSL-OH), the “ID50 (concentration of peptide that inhibited binding of radiolabeled angiotensin II by 50%)” value in the test on angiotensin II receptors was 6 nM.
On the same count and under the same terms, under `CC[C@H](C)[C@H](NC(=O)[C@H](Cc1ccc(O)cc1)NC(=O)[C@@H](NC(=O)CNC(=O)[C@@H](N)CCCCN)C(C)C)C(=O)N[C@@H](Cc1c[nH]cn1)C(=O)N[C@@H](C)C(=O)N[C@@H](CC(C)C)C(N)=O` [Peptide 7, NH2LYSGLYVALTYRILEHISALALEUCONH2] (H-KGVYIHAL-NH2) stands 40 to 160 nM; under `CC[C@H](C)[C@H](NC(=O)[C@H](Cc1ccc(O)cc1)NC(=O)[C@@H](NC(=O)CNC(=O)[C@H](CCCCN)NC(C)=O)C(C)C)C(=O)N[C@@H](Cc1c[nH]cn1)C(=O)N[C@@H](C)C(=O)N[C@@H](CC(C)C)C(N)=O` [Peptide 9] (Ac-KGVYIHAL-NH2), 2,400-3,100 nM.
Same read-out and setting: the figure for `CSCC[C@H](NC(=O)[C@H](CC(=O)O)NC(=O)[C@@H](NC(=O)CNC(=O)[C@@H](N)CCCCN)C(C)C)C(=O)N[C@@H](Cc1c[nH]cn1)C(=O)N[C@@H](C)C(=O)N[C@@H](CC(C)C)C(=O)O` [Peptide 3, NH2LYSGLYVALASPMETHISALALEUCOOH] (H-KGVDMHAL-OH) is 5,000 nM.
Turning to `CC[C@@H](C)[C@@H](NC(=O)[C@@H](Cc1ccc(O)cc1)NC(=O)[C@H](NC(=O)CNC(=O)[C@H](N)CCCCN)C(C)C)C(=O)N[C@H](Cc1c[nH]cn1)C(=O)N[C@H](C)C(=O)N[C@H](CC(C)C)C(=O)O` [Peptide 11, NH2LYSGLYVALTYRILEHISALALEUCOOH] (H-[dK]G[dV][dY][dI][dH][dA][dL]-OH), the “ID50 (concentration of peptide that inhibited binding of radiolabeled angiotensin II by 50%)” value in the test on angiotensin II receptors is given as > 10,000 nM. Also, the “% Change from AII Response” value is -7% in test [1] (peptide 3 × 10^-5 M); -3% in test [1] (peptide 3 × 10^-6 M); -33% in test [1] (peptide 10^-4 M); -5% in test [1] (peptide 10^-5 M); 0% in test [1] (peptide 10^-6 M).
On to `CC(C)[C@H](NC(=O)[C@H](C)NC(=O)[C@H](Cc1ccc(O)cc1)NC(=O)[C@@H](NC(=O)[C@H](CC(=O)O)NC(=O)[C@@H](NC(=O)CNC(=O)[C@@H](N)CCCCN)C(C)C)C(C)C)C(=O)O` [Peptide 1, NH2 - LYS-GLY-VAL-ASP-VAL-TYR-ALA-VAL-COOH] (H-KGVDVYAV-OH), for which the “ID50 (concentration of peptide that inhibited binding of radiolabeled angiotensin II by 50%)” value with angiotensin II receptors is 4,000 nM.
“Angiotensin II (DRVYIHPF; Angiotensin-2; UniProt P01019 25-32, looked up) [an octapeptide formed from angiotensin I by angiotensin converting enzyme; causes blood vessel constriction, reference compound]”: in the test on angiotensin II receptors, the “ID50 (concentration of peptide that inhibited binding of radiolabeled angiotensin II by 50%)” value was in the range of 12 to 15 nM. Moreover, in the test on angiotensin II receptors (20 nM cold angiotensin II), the “Residual binding of radioactivity” value is reported as 35-45%. Further, the “Average Baseline Response” value in test [2] (3 × 10^-8 M) is on record as 2,613 mg; in test [2] (3 × 10^-9 M) it was 2,332 mg; in test [2] (3 × 10^-10 M), 991 mg; in test [2] (3 × 10^-11 M) it was 0 mg; in test [2] (10^-8 M), 2,562 mg; in test [2] (10^-9 M) it was 1,726 mg. In addition, the “Average Baseline Response” value in test [2] (10^-10 M) and in test [2] (10^-11 M) was 0 mg each time. Moreover, the “Relaxation of venous segments, as % of the response to prostaglandin F2a” value with dog femoral vein (prostaglandin F2a 8.5×10^-7 M) is given as “approximately 50%”. In addition, the “Increase in mean arterial blood pressure” value in the test on rat hypertension model (bolus injection 1 ng, jugular vein, anesthetized rats) is recorded as ~ 50 mm Hg.
As for `CC(C)[C@H](NC(=O)[C@@H]1CCCN1C(=O)[C@H](Cc1c[nH]cn1)NC(=O)[C@@H](NC(=O)[C@H](CC(=O)O)NC(=O)[C@@H](NC(=O)CNC(=O)[C@@H](N)CCC(N)=O)C(C)C)C(C)C)C(=O)O` [Peptide 12, NH2GLNGLYVALASPVALHISPROVALCOOH] (H-QGVDVHPV-OH), the “ID50 (concentration of peptide that inhibited binding of radiolabeled angiotensin II by 50%)” value in the test with angiotensin II receptors is reported as 5,000 nM.
Consider `CC[C@H](C)[C@H](NC(=O)[C@H](Cc1ccc(O)cc1)NC(=O)[C@@H](NC(=O)CNC(=O)[C@@H](N)CCCCN)C(C)C)C(=O)N[C@@H](Cc1c[nH]cn1)C(=O)N[C@@H](C)C(=O)N[C@@H](CC(C)C)C(=O)O` [Peptide 2, NH2LYSGLYVALTYRILEHISALALEUCOOH] (H-KGVYIHAL-OH), for which the “ID50 (concentration of peptide that inhibited binding of radiolabeled angiotensin II by 50%)” value with angiotensin II receptors is 8 to 14 nM. The “Average Baseline Response” value in test [2] (3 × 10^-7 M), in test [2] (3 × 10^-8 M), in test [2] (3 × 10^-9 M), in test [2] (3 × 10^-10 M), in test [2] (10^-6 M) and in test [2] (10^-7 M) was 0 mg in each case. Further, the “Average Baseline Response” value in test [2] (10^-8 M) and in test [2] (10^-9 M) was 0 mg each time. In addition, the “% Change from AII Response” value in test [1] (peptide 3 × 10^-5 M) is listed as -73%; in test [1] (peptide 3 × 10^-6 M) it was 0%; in test [1] (peptide 10^-4 M) it was -83%; in test [1] (peptide 10^-5 M), -18%; in test [1] (peptide 10^-6 M) it was 0%. Also, the “Inhibition of relaxation response to angiotensin II” value with dog femoral vein (10^-5 M) came to 100%. Also, the “Effect on baseline blood pressure” value with rat hypertension model (infusion 0.1 to 0.5 mg/min) is recorded as “did not alter baseline blood pressure”. For the same compound, the “Effect on pressor responses to angiotensin II” value in the test on rat hypertension model (infusion 0.1 to 0.5 mg/min, angiotensin II 1 ng) was “did not influence pressor responses to angiotensin II”.
